Assay results reported in patent US10160747B2, “Compounds and methods for kinase modulation, and indications therefor” (Plexxikon Inc., priority 2016, dated 2018).
pIC50: −log10 of the molar value.

Assays:
Format in all cases: biochemical
FLT3-ITD = molecular target: T1, FLT3-ITD (Homo sapiens, UniProt P36888); experiment: FLT3-ITD recombinant enzyme kinase assay (AlphaScreen); details: 8 pt; read-out: FLT3_ITD 8 pt: IC50
T1 sequence (P36888 1-993): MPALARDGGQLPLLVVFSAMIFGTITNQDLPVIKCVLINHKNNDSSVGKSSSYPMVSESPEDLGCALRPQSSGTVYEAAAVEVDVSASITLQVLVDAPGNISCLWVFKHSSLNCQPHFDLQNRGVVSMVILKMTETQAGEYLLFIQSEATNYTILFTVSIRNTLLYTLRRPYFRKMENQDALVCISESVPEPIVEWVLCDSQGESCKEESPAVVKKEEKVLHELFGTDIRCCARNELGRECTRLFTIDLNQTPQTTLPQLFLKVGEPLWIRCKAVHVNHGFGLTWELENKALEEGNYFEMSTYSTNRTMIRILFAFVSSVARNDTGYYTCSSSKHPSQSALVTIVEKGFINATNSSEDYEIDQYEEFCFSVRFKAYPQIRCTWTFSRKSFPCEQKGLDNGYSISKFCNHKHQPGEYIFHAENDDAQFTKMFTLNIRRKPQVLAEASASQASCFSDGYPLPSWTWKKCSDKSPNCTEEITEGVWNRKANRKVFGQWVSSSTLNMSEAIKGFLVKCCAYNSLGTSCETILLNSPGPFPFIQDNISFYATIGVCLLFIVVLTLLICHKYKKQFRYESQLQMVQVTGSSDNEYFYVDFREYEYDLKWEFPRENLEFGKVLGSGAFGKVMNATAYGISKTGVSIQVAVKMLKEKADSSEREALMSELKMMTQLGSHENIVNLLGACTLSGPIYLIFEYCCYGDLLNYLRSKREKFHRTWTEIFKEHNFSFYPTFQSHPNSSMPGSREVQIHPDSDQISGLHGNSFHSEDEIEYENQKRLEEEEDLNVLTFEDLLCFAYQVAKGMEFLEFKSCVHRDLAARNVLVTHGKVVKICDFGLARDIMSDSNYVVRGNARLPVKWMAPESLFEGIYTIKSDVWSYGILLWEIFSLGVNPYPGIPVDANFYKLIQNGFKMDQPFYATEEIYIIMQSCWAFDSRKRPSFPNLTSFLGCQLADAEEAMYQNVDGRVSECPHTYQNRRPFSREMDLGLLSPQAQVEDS
Summary of the method: (§1)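 Recombinant enzyme phosphorylated biotinylated poly(Glu4-Tyr) peptide (30 nM final) with ATP at 10 μM for FLT3-ITD and FLT3-D835Y or 100 μM for c-KIT. Phosphopeptide was detected by AlphaScreen with streptavidin donor and anti-phosphotyrosine (PY20) acceptor beads (10 μg/mL), read at 580 nm, for IC50 determination.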

FLT3-D835Y = molecular target: T2, FLT3-D835Y (Homo sapiens, UniProt P36888, D835Y); experiment: FLT3-D835Y recombinant enzyme kinase assay (AlphaScreen); details: 8 pt, GMean
T2 construct: purchased Invitrogen PV3967
T2 sequence (P36888 27-993 D835Y): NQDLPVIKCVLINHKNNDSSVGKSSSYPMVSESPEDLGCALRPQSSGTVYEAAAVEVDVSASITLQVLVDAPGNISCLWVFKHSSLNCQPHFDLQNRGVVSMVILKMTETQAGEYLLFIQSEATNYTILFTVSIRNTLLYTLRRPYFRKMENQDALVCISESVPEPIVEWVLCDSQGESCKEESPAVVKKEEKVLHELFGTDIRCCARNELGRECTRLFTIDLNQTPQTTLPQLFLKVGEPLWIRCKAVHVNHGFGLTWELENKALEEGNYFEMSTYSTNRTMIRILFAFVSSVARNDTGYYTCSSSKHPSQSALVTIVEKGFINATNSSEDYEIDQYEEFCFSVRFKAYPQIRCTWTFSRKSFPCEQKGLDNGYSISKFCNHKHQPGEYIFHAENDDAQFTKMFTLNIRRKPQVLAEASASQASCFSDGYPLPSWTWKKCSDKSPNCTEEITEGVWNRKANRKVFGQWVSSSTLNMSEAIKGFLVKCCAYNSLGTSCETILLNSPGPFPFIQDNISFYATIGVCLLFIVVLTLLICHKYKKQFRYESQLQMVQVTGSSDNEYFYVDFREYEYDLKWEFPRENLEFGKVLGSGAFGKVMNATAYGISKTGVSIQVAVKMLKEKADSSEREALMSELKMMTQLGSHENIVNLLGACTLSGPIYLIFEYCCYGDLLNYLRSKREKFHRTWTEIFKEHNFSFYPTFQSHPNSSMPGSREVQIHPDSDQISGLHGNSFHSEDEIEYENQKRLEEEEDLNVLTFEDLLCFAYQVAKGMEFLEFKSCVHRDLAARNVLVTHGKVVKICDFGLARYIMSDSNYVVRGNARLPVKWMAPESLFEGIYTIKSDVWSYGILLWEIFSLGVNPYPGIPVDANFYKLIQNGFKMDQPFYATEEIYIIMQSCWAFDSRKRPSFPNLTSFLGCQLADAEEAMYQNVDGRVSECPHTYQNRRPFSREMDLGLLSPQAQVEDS
Summary of the method: as §1

c-KIT = molecular target: T3, c-KIT (Homo sapiens, UniProt P10721); experiment: c-KIT recombinant enzyme kinase assay (AlphaScreen); details: 100 ATP, 8 pt
T3 construct: purchased Millipore 14-559K
Summary of the method: as §1

Measured: pIC50

T3 sequence (P10721 26-976): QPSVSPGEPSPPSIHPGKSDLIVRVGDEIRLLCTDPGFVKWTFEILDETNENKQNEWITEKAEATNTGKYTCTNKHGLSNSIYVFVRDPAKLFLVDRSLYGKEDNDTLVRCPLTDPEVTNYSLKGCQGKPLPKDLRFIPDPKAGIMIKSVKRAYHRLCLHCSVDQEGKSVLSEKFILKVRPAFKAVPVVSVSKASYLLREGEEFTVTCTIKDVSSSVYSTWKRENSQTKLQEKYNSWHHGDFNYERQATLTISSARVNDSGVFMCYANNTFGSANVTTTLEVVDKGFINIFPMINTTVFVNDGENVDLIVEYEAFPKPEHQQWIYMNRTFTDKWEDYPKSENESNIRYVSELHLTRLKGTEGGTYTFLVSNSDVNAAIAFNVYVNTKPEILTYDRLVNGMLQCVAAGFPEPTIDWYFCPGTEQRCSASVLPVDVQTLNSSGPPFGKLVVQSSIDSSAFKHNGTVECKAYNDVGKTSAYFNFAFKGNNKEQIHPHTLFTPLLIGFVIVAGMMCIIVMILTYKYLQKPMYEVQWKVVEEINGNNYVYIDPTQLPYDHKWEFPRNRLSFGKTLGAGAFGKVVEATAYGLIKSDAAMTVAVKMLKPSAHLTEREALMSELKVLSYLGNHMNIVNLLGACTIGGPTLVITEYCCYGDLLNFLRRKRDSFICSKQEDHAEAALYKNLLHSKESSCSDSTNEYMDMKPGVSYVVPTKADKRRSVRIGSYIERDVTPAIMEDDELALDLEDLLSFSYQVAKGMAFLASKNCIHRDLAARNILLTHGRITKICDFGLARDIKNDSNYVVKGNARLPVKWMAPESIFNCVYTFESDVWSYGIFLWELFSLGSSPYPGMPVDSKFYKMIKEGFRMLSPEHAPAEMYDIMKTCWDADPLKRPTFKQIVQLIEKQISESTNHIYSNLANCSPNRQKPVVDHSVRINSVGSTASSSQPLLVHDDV

COc1ncc(NC(=O)Cc2ccc(-c3cnc4[nH]nc(Cl)c4c3)cc2)cc1C(F)(F)F [Compound P-0230, 2-[4-(3-chloro-1H-pyrazolo[3,4-b]pyridin-5-yl)phenyl]-N-[6-methoxy-5-(trifluoromethyl)-3-pyridyl]acetamide]
5.00 to 10.00: all assays above

COc1ncc(NC(=O)Cc2ccc(-c3cnc(Nc4cnn(C(F)F)c4)nc3)cc2)cc1C(F)(F)F [Compound P-0211, 2-[4-[2-[[1-(difluoromethyl)pyrazol-4-yl]amino]pyrimidin-5-yl]phenyl]-N-[6-methoxy-5-(trifluoromethyl)-3-pyridyl]acetamide]
5.00 to 10.00: all assays above

COCCn1cc(Nc2ncc(-c3ccc(CC(=O)Nc4cnc(Cl)c(C(F)(F)F)c4)c(F)c3)cn2)cn1 [Compound P-0266, N-[6-chloro-5-(trifluoromethyl)-3-pyridyl]-2-[2-fluoro-4-[2-[[1-(2-methoxyethyl)pyrazol-4-yl]amino]pyrimidin-5-yl]phenyl]acetamide]
5.00 to 10.00: all assays above

Cc1ncc(NC(=O)Cc2ccc(-c3cnc(Nc4cnn(C5CC5)c4)nc3)cc2F)cc1C(F)(F)F [Compound P-0239, 2-[4-[2-[(1-cyclopropylpyrazol-4-yl)amino]pyrimidin-5-yl]-2-fluoro-phenyl]-N-[6-methyl-5-(trifluoromethyl)-3-pyridyl]acetamide]
5.00 to 10.00: all assays above

Cc1ncc(NC(=O)Cc2ccc(-c3cnc4[nH]c(C#CC(C)(C)O)cc4c3)cc2)cc1C(F)(F)F [Compound P-0220, 2-[4-[2-(3-hydroxy-3-methyl-but-1-ynyl)-1H-pyrrolo[2,3-b]pyridin-5-yl]phenyl]-N-[6-methyl-5-(trifluoromethyl)-3-pyridyl]acetamide]
5.00 to 10.00: all assays above

CCOc1n[nH]c2ncc(-c3ccc(CC(=O)Nc4cnc(OC)c(C(F)(F)F)c4)cc3)cc12 [Compound P-0213, 2-(4-(3-ethoxy-1H-pyrazolo[3,4-b]pyridin-5-yl)phenyl)-N-(6-methoxy-5-(trifluoromethyl)pyridin-3-yl)acetamide]
5.00 to 10.00: all assays above

O=C(Cc1ccc(-c2cnc(Nc3cnn(C(F)F)c3)nc2)cc1)Nc1cncc(C(F)(F)F)c1 [Compound P-0209, 2-[4-[2-[[1-(difluoromethyl)pyrazol-4-yl]amino]pyrimidin-5-yl]phenyl]-N-[5-(trifluoromethyl)-3-pyridyl]acetamide]
5.00 to 10.00: all assays above

Cn1cc(Nc2ncc(-c3cc(F)c(CC(=O)Nc4cc(C(F)(F)F)ccn4)cc3F)cn2)cn1 [Compound P-0019, 2-[2,5-difluoro-4-[2-[(1-methylpyrazol-4-yl)amino]pyrimidin-5-yl]phenyl]-N-[4-(trifluoromethyl)-2-pyridyl]acetamide]
5.00 to 10.00: all assays above

O=C(Cc1ccc(-c2cnc(Nc3cnn(C4CC4)c3)nc2)cc1F)Nc1cnc(Cl)c(C(F)(F)F)c1 [Compound P-0240, N-[6-chloro-5-(trifluoromethyl)-3-pyridyl]-2-[4-[2-[(1-cyclopropylpyrazol-4-yl)amino]pyrimidin-5-yl]-2-fluoro-phenyl]acetamide]
5.00 to 10.00: all assays above

Cn1cc(Nc2ncc(-c3ccc(CC(=O)Nc4cc(C(F)(F)F)ccn4)cc3F)cn2)cn1 [Compound P-0017, 2-[3-fluoro-4-[2-[(1-methylpyrazol-4-yl)amino]pyrimidin-5-yl]phenyl]-N-[4-(trifluoromethyl)-2-pyridyl]acetamide]
5.00 to 10.00: all assays above

CC(C)(O)C#Cc1cc2cc(-c3ccc(CC(=O)Nc4cncc(C(F)(F)F)c4)cc3)cnc2[nH]1 [Compound P-0204, 2-[4-[2-(3-hydroxy-3-methyl-but-1-ynyl)-1H-pyrrolo[2,3-b]pyridin-5-yl]phenyl]-N-[5-(trifluoromethyl)-3-pyridyl]acetamide]
5.00 to 10.00: all assays above

Cn1cc(Nc2ncc(-c3cc(F)c(CC(=O)Nc4cncc(C(F)(F)F)c4)cc3F)cn2)cn1 [Compound P-0207, 2-[2,5-difluoro-4-[2-[(1-methylpyrazol-4-yl)amino]pyrimidin-5-yl]phenyl]-N-[5-(trifluoromethyl)-3-pyridyl]acetamide]
5.00 to 10.00: all assays above

COc1n[nH]c2ncc(-c3ccc(CC(=O)Nc4cnc(C)c(C(F)(F)F)c4)cc3)cc12 [Compound P-0218, 2-[4-(3-methoxy-1H-pyrazolo[3,4-b]pyridin-5-yl)phenyl]-N-[6-methyl-5-(trifluoromethyl)-3-pyridyl]acetamide]
5.00 to 10.00: all assays above

O=C(Cc1ccc(-c2cnc(Nc3cnn(C4CC4)c3)nc2)cc1F)Nc1ccc(C(F)(F)F)cn1 [Compound P-0243, 2-[4-[2-[(1-cyclopropylpyrazol-4-yl)amino]pyrimidin-5-yl]-2-fluoro-phenyl]-N-[5-(trifluoromethyl)-2-pyridyl]acetamide]
5.00 to 10.00: all assays above

O=C(Cc1ccc(-c2cnc3[nH]c(-c4ccnc(N5CCOCC5)c4)cc3c2)c(F)c1)Nc1cncc(C(F)(F)F)c1 [Compound P-0201, 2-[3-fluoro-4-[2-(2-morpholino-4-pyridyl)-1H-pyrrolo[2,3-b]pyridin-5-yl]phenyl]-N-[5-(trifluoromethyl)-3-pyridyl]acetamide]
5.00 to 10.00: all assays above

COCCn1cc(Nc2ncc(-c3ccc(CC(=O)Nc4ccc(C(F)(F)F)nc4)cc3)cn2)cn1 [Compound P-0273, 2-[4-[2-[[1-(2-methoxyethyl)pyrazol-4-yl]amino]pyrimidin-5-yl]phenyl]-N-[6-(trifluoromethyl)-3-pyridyl]acetamide]
5.00 to 10.00: all assays above

COCCn1cc(Nc2ncc(-c3ccc(CC(=O)Nc4ccc(C(F)(F)F)cn4)c(F)c3)cn2)cn1 [Compound P-0269, 2-[2-fluoro-4-[2-[[1-(2-methoxyethyl)pyrazol-4-yl]amino]pyrimidin-5-yl]phenyl]-N-[5-(trifluoromethyl)-2-pyridyl]acetamide]
5.00 to 10.00: all assays above

O=C(Cc1ccc(-c2cnc(Nc3cnn(C4CC4)c3)nc2)cc1)Nc1cnc(Cl)c(C(F)(F)F)c1 [Compound P-0233, N-[6-chloro-5-(trifluoromethyl)-3-pyridyl]-2-[4-[2-[(1-cyclopropylpyrazol-4-yl)amino]pyrimidin-5-yl]phenyl]acetamide]
5.00 to 10.00: all assays above
